The results in this text go back to PubChem BioAssay (NCI).

Usually TGI stands for the concentration giving total growth inhibition.

Each structure is given as a SMILES string.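 Where inhibition never reached the appropriate level, the endpoint shown equals the highest concentration tested. Otherwise, values were interpolated linearly from a five-concentration, 48-hour dose response in 96-well plates. TGI: concentration producing complete growth inhibition.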

Holding throughout (assay): DTP human tumour cell line panel, 48 h
Assay [1] deals with RXF 393 renal.
The test system of assay [2] is MCF7 breast.
For assay [3], the system named is NCI/ADR-RES ovarian.
Assay [4] concerns HCT-15 colon.
Assay [5] has as its system PC-3 prostate.
Assay [6] has as its system OVCAR-4 ovarian.
The test system of assay [7] is IGROV1 ovarian.
The subject of assay [8] is OVCAR-3 ovarian.
The test system of assay [9] is MALME-3M melanoma.
The subject of assay [10] is UACC-62 melanoma.
Assay [11] deals with HCT-116 colon.
Assay [12] has as its system K-562 leukemia.
For assay [13], the system named is SR leukemia.
Assay [14] relates to MDA-MB-435.
For assay [15], the system named is MOLT-4 leukemia.
Assay [16] deals with NCI-H226 lung.
The subject of assay [17] is TK-10 renal.
Assay [18] relates to SK-MEL-2 melanoma.
For assay [19], the system named is SK-MEL-28 melanoma.

For the molecule `Nc1onc2c1Cc1c(noc1N)-c1ccccc1-2`, the TGI in assay [1], in assay [2], in assay [3], in assay [4], in [5] and in assay [6] was above 100 µM in each case. For the same molecule, the concentration for total growth inhibition (TGI) in assay [7], in assay [8], in assay [9], in [10], in assay [11] and in assay [12] was above 100 µM in each case. In addition, the TGI in assay [13], in [14], in [15], in assay [16], in assay [17] and in assay [18] was above 100 µM in each case. Also, the TGI in assay [19] is above 100 µM.
As to `N#Cc1c(N)nc(Sc2ccccc2N)c(C#N)c1-c1ccc(Cl)cc1`, the TGI was 49.9 µM in assay [1]; 29.6 µM in [2]; 35.5 µM in [3]; 54.7 µM in [4]; 20.7 µM in assay [5]; above 100 µM in assay [6]. Also, the TGI was 33.6 µM in assay [7]; 31.9 µM in assay [8]; 27.7 µM in [9]; 13 µM in assay [10]; above 72.6 µM in [11]; above 42 µM in assay [12]. For the same molecule, the concentration for total growth inhibition (TGI) in assay [13] was above 40.5 µM; in [14], 37.5 µM; in assay [15], above 24.6 µM; in assay [16], above 100 µM; in assay [17], above 48.5 µM; in assay [18], 18.2 µM. Further, the TGI in assay [19] is above 100 µM.
Take `O=[N+]([O-])c1ccc(N/N=C/c2ccc(OCCCCCCCCCCCO)cc2)c([N+](=O)[O-])c1`: the total growth inhibition concentration (TGI) is 4.6 µM in [1]; above 93.6 µM in assay [2]; 9.51 µM in [3]; above 100 µM in assay [4]; 14.7 µM in [5]; 13.7 µM in [6]. Also, the TGI in assay [7] is 67.4 µM; in assay [8] it was above 100 µM; in assay [9] it was 4.61 µM; in [10], 7.74 µM; in assay [11], above 43.7 µM; in [12], 2.97 µM. Besides, the TGI in assay [13] is 8.94 µM; in assay [14], 11.7 µM; in [15], above 100 µM; in [16], 37.3 µM; in assay [17], 33.7 µM; in [18] it was 56.1 µM. In addition, in assay [19], the TGI came to 32.5 µM.
Turning to `CO/N=C(\C)CCC#Cc1ccccc1C(=O)OC`, the TGI in [1], in assay [2], in assay [3], in assay [4], in [5] and in assay [6] was above 10 µM each time. The total growth inhibition concentration (TGI) in [7], in [8], in assay [9], in [10], in assay [11] and in assay [12] was above 10 µM each time. For the same molecule, the TGI in assay [13], in [14], in [15], in assay [16], in assay [17] and in [18] was above 10 µM each time. This molecule gave a concentration for total growth inhibition (TGI) in [19] above 10 µM.
With `CC1=C(C(=O)Nc2ccccc2)C2(CCCCC2)C(C#N)=C(SCC(=O)Nc2ccc(Br)cc2)N1`, the TGI in assay [1] was 14.1 µM; in assay [2] it was above 47.9 µM; in assay [3] it was 27.3 µM; in [4], 20.2 µM; in assay [5] it was 7.96 µM; in assay [6], above 75.2 µM. Moreover, the TGI is 14.6 µM in [7]; 15 µM in [8]; 7.48 µM in assay [9]; above 87.3 µM in [10]; 8.28 µM in assay [11]; 23 µM in assay [12]. The TGI in assay [13] is 6.11 µM; in assay [14] it was 29.6 µM; in assay [15] it was 9 µM; in [16] it was 23 µM; in assay [17] it was above 45.4 µM; in assay [18], 6.6 µM. This molecule returned a TGI in assay [19] above 26.5 µM.
In the case of `CCCCCCCCCCCCCCCCCCN(C)CC(COP(=O)([O-])OCC[N+](C)(C)C)OC` (stereo not drawn), the TGI in assay [1] was 8.55 µM; in [2], above 62.3 µM; in assay [3], above 100 µM; in assay [4], 23.5 µM; in [5] it was 32.9 µM; in assay [6], 29.6 µM. The TGI is 6.63 µM in [7]; 51.6 µM in [8]; 43.3 µM in [9]; 32.9 µM in assay [10]; 43.3 µM in [11]; 54.6 µM in assay [12]. The concentration for total growth inhibition (TGI) in assay [13] was 28.6 µM; in assay [14], 97 µM; in assay [15], 11.3 µM; in assay [16] it was 42.4 µM; in assay [17] it was 8.46 µM; in [18] it was 53.7 µM. In [19], the TGI worked out at 56.8 µM.
For the molecule `Cc1cc(C)c(-n2c(-c3ccc(Br)cc3)cs/c2=N\N=C2C=C(C(C)(C)C)C(=O)C(C(C)(C)C)=C2)c(C)c1`, the total growth inhibition concentration (TGI) in assay [1] is 81.8 µM; in assay [2], above 100 µM; in assay [3], above 100 µM; in assay [4], above 100 µM; in assay [5], above 100 µM; in assay [6] it was above 100 µM. Moreover, the TGI in assay [7], in assay [8], in assay [9], in assay [10], in [11] and in [12] was above 100 µM throughout. The TGI in [13], in assay [14], in [15], in [16], in assay [17] and in assay [18] was above 100 µM throughout. In assay [19], the total growth inhibition concentration (TGI) is above 100 µM.
